Reference: BindingDB's records for doi:10.1021/jm801063n (University of Auckland, 2009)

test: Inhibition of recombinant perforin-mediated lysis of human Jurkat T cells by 51Cr release assay

SMILES | IC50 [µM]
Cc1cc2c(c(=O)[nH]1)C(=O)O/C2=C\c1ccc(-c2ccccc2)s1 [(Z)-6-Methyl-1-((5-phenylthiophen-2-yl)methylene)furo[3,4-c]pyridine-3,4(1H,5H)-dione] | 5
Cc1cc2c(c(=S)[nH]1)C(=O)O/C2=C\c1csc(-c2ccccc2)c1 [(Z)-6-Methyl-1-((5-phenylthiophen-3-yl)methylene)-4-thioxo-4,5-dihydrofuro[3,4-c]pyridin-3(1H)-one] | > 20
Cc1cc2c(c(=S)[nH]1)C(=O)O/C2=C\c1ccc(OC(F)(F)F)cc1 [(Z)-6-Methyl-4-thioxo-1-(4-(trifluoromethoxy)benzylidene)-4,5-dihydrofuro[3,4-c]pyridin-3(1H)-one] | > 20
Cc1cc2c(c(=S)[nH]1)C(=O)O/C2=C\c1ccc(C(F)(F)F)cc1 [(Z)-6-Methyl-4-thioxo-1-(4-(trifluoromethyl)benzylidene)-4,5-dihydrofuro[3,4-c]pyridin-3(1H)-one] | > 20
CC(=O)Nc1ccc(/C=C2\OC(=O)c3c2cc(C)[nH]c3=S)cc1 [(Z)-N-(4-((6-Methyl-3-oxo-4-thioxo-4,5-dihydrofuro[3,4-c]pyridin-1(3H)-ylidene)methyl)phenyl)acetamide] | > 20

Second part, the compound after the results:

IC50 [µM] | SMILES
> 20 | Cc1cc2c(c(=O)[nH]1)C(=O)N/C2=C\c1ccc(-c2ccccc2)s1 [(Z)-6-Methyl-1-((5-phenylthiophen-2-yl)methylene)-1H-pyrrolo[3,4-c]pyridine-3,4(2H,5H)-dione]
3.4 | Cc1cc2c(c(=S)[nH]1)C(=O)O/C2=C\c1ccc(-c2ccccc2)s1 [(Z)-6-Methyl-1-((5-phenylthiophen-2-yl)methylene)-4-thioxo-4,5-dihydrofuro[3,4-c]pyridin-3(1H)-one]
8.6 | Cc1cc2c(c(=S)[nH]1)C(=O)O/C2=C\c1cccs1 [(Z)-6-Methyl-1-(thiophen-2-ylmethylene)-4-thioxo-4,5-dihydrofuro[3,4-c]pyridin-3(1H)-one]
> 20 | Cc1cc2c(c(=S)[nH]1)C(=O)O/C2=C\c1ccsc1 [(Z)-6-Methyl-1-(thiophen-3-ylmethylene)-4-thioxo-4,5-dihydrofuro[3,4-c]pyridin-3(1H)-one]
